Test results: patent US8748415B2 (priority 2011, dated 2014)

System: recombinant NL4-3 virus (Renilla luciferase in nef, Gag P373S)
Assay: HIV cell culture assay (luciferase activity in MT-2 cells infected with NLRluc recombinant virus)
Assay type: cell-based
Conditions: NL43, MT-2 cells infected 4-5 days with NLRluc recombinant virus, class symbol
Outline: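 MT-2 cells in RPMI/10% FBS were infected with recombinant NL4-3 (NLRluc), produced by 293T transfection and titered in MT-2 by luciferase. Serial inhibitor dilutions were present throughout a 4–5 day infection. Antiviral activity was quantified as Renilla luciferase signal via a modified Dual Luciferase read.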

| Structure (SMILES) | EC50 [nM] |
| --- | --- |
| C=C(C)[C@@H]1CC[C@]2(CNCC(=O)N3CCS(=O)(=O)CC3)CC[C@]3(C)[C@H](CC[C@@H]4[C@@]5(C)CC=C(c6ccc(C(=O)O)cc6)C(C)(C)[C@@H]5CC[C@]43C)[C@@H]12 [Example 108, 4-((1R,3aS,5aR,5bR,7aR,11aS,11bR,13aR,13bR)-3a-(((2-(1,1-dioxido-4-thiomorpholinyl)-2-oxoethyl)amino)methyl)-1-isopropenyl-5a,5b,8,8,11a-pentamethyl-2,3,3a,4,5,5a,5b,6,7,7a,8,11,11a,11b,12,13,13a,13b-octadecahydro-1H-cyclopenta[a]chrysen-9-yl)benzoic acid] | < 100 |
| C=C(C)[C@@H]1CC[C@]2(CNCCCC(=O)OC(C)(C)C)CC[C@]3(C)[C@H](CC[C@@H]4[C@@]5(C)CC=C(c6ccc(C(=O)O)cc6)C(C)(C)[C@@H]5CC[C@]43C)[C@@H]12 [Example 27, 4-((1R,3aS,5aR,5bR,7aR,11aS,11bR,13aR,13bR)-3a-((4-tert-butoxy-4-oxobutylamino)methyl)-5a,5b,8,8,11a-pentamethyl-1-(prop-1-en-2-yl)-2,3,3a,4,5,5a,5b,6,7,7a,8,11,11a,11b,12,13,13a,13b-octadecahydro-1H-cyclopenta[a]chrysen-9-yl)benzoic acid] | < 100 |
| C=C(C)[C@@H]1CC[C@]2(CN(C)C)CC[C@]3(C)[C@H](CC[C@@H]4[C@@]5(C)CC=C(c6ccc(C(=O)O)cc6)C(C)(C)[C@@H]5CC[C@]43C)[C@@H]12 [Example 83, 4-((1R,3aS,5aR,5bR,7aR,11aS,11bR,13aR,13bR)-3a-((dimethylamino)methyl)-5a,5b,8,8,11a-pentamethyl-1-(prop-1-en-2-yl)-2,3,3a,4,5,5a,5b,6,7,7a,8,11,11a,11b,12,13,13a,13b-octadecahydro-1H-cyclopenta[a]chrysen-9-yl)benzoic acid] | < 100 |
| C=C(C)[C@@H]1CC[C@]2(CNCCC(=O)N3CCC(F)(F)C3)CC[C@]3(C)[C@H](CC[C@@H]4[C@@]5(C)CC=C(c6ccc(C(=O)O)cc6)C(C)(C)[C@@H]5CC[C@]43C)[C@@H]12 [Example 103, 4-((1R,3aS,5aR,5bR,7aR,11aS,11bR,13aR,13bR)-3a-((3-(3,3-difluoropyrrolidin-1-yl)-3-oxopropylamino)methyl)-5a,5b,8,8,11a-pentamethyl-1-(prop-1-en-2-yl)-2,3,3a,4,5,5a,5b,6,7,7a,8,11,11a,11b,12,13,13a,13b-octadecahydro-1H-cyclopenta[a]chrysen-9-yl)benzoic acid] | < 100 |
| C=C(C)[C@@H]1CC[C@]2(CNCCCn3ccnc3C)CC[C@]3(C)[C@H](CC[C@@H]4[C@@]5(C)CC=C(c6ccc(C(=O)O)cc6)C(C)(C)[C@@H]5CC[C@]43C)[C@@H]12 [Example 22] | < 100 |
| C=C(C)[C@@H]1CC[C@]2(CNCCCNC)CC[C@]3(C)[C@H](CC[C@@H]4[C@@]5(C)CC=C(c6ccc(C(=O)O)cc6)C(C)(C)[C@@H]5CC[C@]43C)[C@@H]12 [Example 19, 4-((1R,3aS,5aR,5bR,7aR,11aS,11bR,13aR,13bR)-5a,5b,8,8,11a-pentamethyl-3a-((3-(methylamino)propylamino)methyl)-1-(prop-1-en-2-yl)-2,3,3a,4,5,5a,5b,6,7,7a,8,11,11a,11b,12,13,13a,13b-octadecahydro-1H-cyclopenta[a]chrysen-9-yl)benzoic acid] | < 100 |
| C=C(C)[C@@H]1CC[C@]2(CNCCCN3C(=O)CCCC3=O)CC[C@]3(C)[C@H](CC[C@@H]4[C@@]5(C)CC=C(c6ccc(C(=O)O)cc6)C(C)(C)[C@@H]5CC[C@]43C)[C@@H]12 [Example 80, 4-((1R,3aS,5aR,5bR,7aR,11aS,11bR,13aR,13bR)-3a-((3-(2,6-dioxopiperidin-1-yl)propylamino)methyl)-5a,5b,8,8,11a-pentamethyl-1-(prop-1-en-2-yl)-2,3,3a,4,5,5a,5b,6,7,7a,8,11,11a,11b,12,13,13a,13b-octadecahydro-1H-cyclopenta[a]chrysen-9-yl)benzoic acid] | < 100 |
